# Where a name gives a salt, the structure may show the parent alone.
# Test system: IL-2 production
# Experiment: Inhibition of IL-2 production in PHA-activated Jurkat cells (ELISA)
# Format: cell-based
# Conditions: Homo sapiens, Jurkat, 20 h, PHA 2.5 μg/mL, IL-2 ELISA
# Procedure: Jurkat cells were placed in a 96 well plate (0.5 million cells per well in 1% FBS medium) then a test compound of this invention was added at different concentrations. After 10 minutes, the cells were activated with PHA (final concentration 2.5 μg/mL) and incubated for 20 hours at 37° C. under CO2. The final volume was 200 μL. Following incubation, the cells were centrifuged and the supernatants collected and stored at −70° C. prior to assaying for IL-2 production. A commercial ELISA kit (IL-2 Eli-pair, Diaclone Research, Besancon, France) was used to detect production of IL-2, from which dose response curves were obtained.
row,SMILES,IC50
1,"COc1ccc(OC)c(-c2csc(NC(=O)c3c(F)cccc3F)n2)c1 [Compound 2, N-[4-(2,5-Dimethoxy-phenyl)-thiazol-2-yl]-2,6-difluoro-benzamide]",> 1 µM
2,"COc1ccc(OC)c(-c2cnc(NC(=O)c3c(F)cccc3F)s2)c1 [Compound 3, N-[5-(2,5-Dimethoxy-phenyl)-thiazol-2-yl]-2,6-difluoro-benzamide]",0.1 to 0.2 µM
3,"O=C(Nc1ncc(-c2cc(C(F)(F)F)ccc2Cl)s1)c1c(F)cccc1F [Compound 4, N-[5-(2-Chloro-5-trifluoromethyl-phenyl)-thiazol-2-yl]-2,6-difluoro-benzamide]",0.05 to 0.1 µM
4,"N#Cc1cccc(-c2cnc(NC(=O)c3c(F)cccc3F)s2)c1 [Compound 6, N-[5-(3-Cyano-phenyl)-thiazol-2-yl]-2,6-difluoro-benzamide]",> 1 µM
5,"Cn1nnc(-c2cccc(-c3cnc(NC(=O)c4c(F)cccc4F)s3)c2)n1 [Compound 7, 2,6-Difluoro-N-{5-[3-(2-methyl-2H-tetrazol-5-yl)-phenyl]-thiazol-2-yl}-benzamide]",> 1 µM
6,"COC(=O)c1cccc(-c2sc(NC(=O)c3c(F)cccc3F)nc2C)c1 [Compound 8, 3-[2-(2,6-Difluoro-benzoylamino)-4-methyl-thiazol-5-yl]-benzoic acid methyl ester]",0.2 to 0.5 µM
7,"Cc1nc(NC(=O)c2c(F)cccc2F)sc1-c1cccc(C(F)(F)F)c1 [Compound 9, 2,6-Difluoro-N-[4-methyl-5-(3-trifluoromethyl-phenyl)-thiazol-2-yl]-benzamide]",0.03 to 0.05 µM
8,"Cc1nc(NC(=O)c2ccncc2F)sc1-c1cccc(C(F)(F)F)c1 [Compound 10, 3-Fluoro-N-[4-methyl-5-(3-trifluoromethyl-phenyl)-thiazol-2-yl]-isonicotinamide]",> 1 µM
9,"Cc1nnsc1C(=O)Nc1nc(C)c(-c2cccc(C(F)(F)F)c2)s1 [Compound 12, 4-Methyl-[1,2,3]thiadiazole-5-carboxylic acid [4-methyl-5-(3-trifluoromethyl-phenyl)-thiazol-2-yl]-amide]",> 1 µM
10,"Cc1nc(NC(=O)c2c(F)cccc2F)sc1-c1cccc(C#N)c1 [Compound 13, N-[5-(3-Cyano-phenyl)-4-methyl-thiazol-2-yl]-2,6-difluoro-benzamide]",0.1 to 0.2 µM
11,"O=C(Nc1nnc(-c2cc(C(F)(F)F)ccc2Cl)s1)c1c(F)cccc1F [Compound 44, N-[5-(2-Chloro-5-trifluoromethyl-phenyl)-[1,3,4]thiadiazol-2-yl]-2,6-difluoro-benzamide]",> 1 µM
12,"Cc1nc(NC(=O)c2cccnc2F)sc1-c1cccc(C(F)(F)F)c1 [Compound 50, 2-Fluoro-N-(4-methyl-5-(3-(trifluoromethyl)phenyl)thiazol-2-yl)nicotinamide]",0.2 to 0.5 µM
13,"Cc1ncccc1C(=O)Nc1nc(C)c(-c2cccc(C(F)(F)F)c2)s1 [Compound 51, 2-Methyl-N-(4-methyl-5-(3-(trifluoromethyl)phenyl)thiazol-2-yl)nicotinamide]",> 1 µM
14,"O=C(Nc1nc(C2CC2)c(-c2cccc(C(F)(F)F)c2)s1)c1c(F)cccc1F [Compound 52, N-(4-Cyclopropyl-5-(3-(trifluoromethyl)phenyl)thiazol-2-yl)-2,6-difluorobenzamide]",0.05 to 0.1 µM
15,"Cc1cnccc1C(=O)Nc1nc(C2CC2)c(-c2cccc(C(F)(F)F)c2)s1 [Compound 53, N-(4-cyclopropyl-5-(3-(trifluoromethyl)phenyl)thiazol-2-yl)-3-methylisonicotinamide]",0.05 to 0.1 µM
16,"Cc1nc(NC(=O)c2c(F)cccc2F)sc1-c1ccncc1 [Compound 54, 2,6-Difluoro-N-(4-methyl-5-(pyridin-4-yl)thiazol-2-yl)benzamide hydrobromide]",> 1 µM
17,"COc1ccc(OC)c(-c2sc(NC(=O)c3c(F)cccc3F)nc2C)c1 [Compound 55, N-(5-(2,5-Dimethoxyphenyl)-4-methylthiazol-2-yl)-2,6-difluorobenzamide]",0.2 to 0.5 µM
18,"Cc1nc(NC(=O)c2c(F)cccc2F)sc1-c1cc(Br)c2c(c1)OCO2 [Compound 56, N-(5-(7-Bromobenzo[d][1,3]dioxol-5-yl)-4-methylthiazol-2-yl)-2,6-difluorobenzamide]",0.2 to 0.5 µM
19,"Cc1nc(NC(=O)c2c(F)cccc2F)sc1-c1ccc2c(c1)OCO2 [Compound 57, N-(5-(Benzo[d][1,3]dioxol-5-yl)-4-methylthiazol-2-yl)-2,6-difluorobenzamide]",0.2 to 0.5 µM
20,"Cc1nc(NC(=O)c2c(F)cccc2F)sc1-c1cc(C#N)c2c(c1)OCO2 [Compound 58, N-(5-(7-Cyanobenzo[d][1,3]dioxol-5-yl)-4-methylthiazol-2-yl)-2,6-difluorobenzamide]",0.2 to 0.5 µM
21,"Cc1nc(NC(=O)c2c(F)cccc2F)sc1-c1ccc(Br)s1 [Compound 59, N-(5-(5-Bromothiophen-2-yl)-4-methylthiazol-2-yl)-2,6-difluorobenzamide]",0.1 to 0.2 µM
22,"Cc1nc(NC(=O)c2c(F)cccc2F)sc1-c1cc(Br)sc1Br [Compound 61, N-(5-(2,5-Dibromothiophen-3-yl)-4-methylthiazol-2-yl)-2,6-difluorobenzamide]",0.2 to 0.5 µM

# Results, then the molecule that gave them:
row,IC50,SMILES
1,> 1 µM,"Cc1nc(NC(=O)c2c(F)cccc2F)sc1-c1ccsc1 [Compound 62, 2,6-Difluoro-N-(4-methyl-5-(thiophen-3-yl)thiazol-2-yl)benzamide]"
2,> 1 µM,"C=CCOc1ccc(C(F)(F)F)cc1-c1sc(NC(=O)c2c(F)cccc2F)nc1C(=O)OC [Compound 63, Methyl 5-(2-(allyloxy)-5-(trifluoromethyl)phenyl)-2-(2,6-difluorobenzamido)thiazole-4-carboxylate]"
3,> 1 µM,"C=CCOc1ccc(C(F)(F)F)cc1-c1sc(NC(=O)c2c(F)cccc2F)nc1C(=C)C [Compound 64, N-(5-(2-(Allyloxy)-5-(trifluoromethyl)phenyl)-4-(prop-1-en-2-yl)thiazol-2-yl)-2,6-difluorobenzamide]"
4,> 1 µM,"C=CCOc1ccc(C(F)(F)F)cc1-c1cnc(NC(=O)c2c(F)cccc2F)s1 [Compound 65, N-(5-(2-(Allyloxy)-5-(trifluoromethyl)phenyl)thiazol-2-yl)-2,6-difluorobenzamide]"
5,> 1 µM,"O=C(O)c1nc(NC(=O)c2c(F)cccc2F)sc1-c1cccc(C(F)(F)F)c1 [Compound 66, 2-(2,6-difluorobenzamido)-5-(3-(trifluoromethyl)phenyl)thiazole-4-carboxylic acid]"
6,> 1 µM,"O=Cc1nc(NC(=O)c2c(F)cccc2F)sc1-c1cccc(C(F)(F)F)c1 [Compound 67, 2,6-Difluoro-N-(4-formyl-5-(3-(trifluoromethyl)phenyl)thiazol-2-yl)benzamide]"
7,> 1 µM,"CC(C)(O)c1nc(NC(=O)c2c(F)cccc2F)sc1-c1cccc(C(F)(F)F)c1 [Compound 68, 2,6-Difluoro-N-(4-(2-hydroxypropan-2-yl)-5-(3-(trifluoromethyl)phenyl)thiazol-2-yl)benzamide]"
8,0.05 to 0.1 µM,"C=C(C)c1nc(NC(=O)c2c(F)cccc2F)sc1-c1cccc(C(F)(F)F)c1 [Compound 68a, 2,6-difluoro-N-(4-(prop-1-en-2-yl)-5-(3-(trifluoromethyl)phenyl)thiazol-2-yl)benzamide]"
9,0.2 to 0.5 µM,"CC(C)c1nc(NC(=O)c2c(F)cccc2F)sc1-c1cccc(C(F)(F)F)c1 [Compound 69, 2,6-Difluoro-N-(4-isopropyl-5-(3-(trifluoromethyl)phenyl)thiazol-2-yl)benzamide]"
10,> 1 µM,"O=C(Nc1nc(CCl)c(-c2cccc(C(F)(F)F)c2)s1)c1c(F)cccc1F [Compound 70, N-(4-(Chloromethyl)-5-(3-(trifluoromethyl)phenyl)thiazol-2-yl)-2,6-difluorobenzamide]"
11,> 1 µM,"O=C(Nc1nc(/C=N\O)c(-c2cccc(C(F)(F)F)c2)s1)c1c(F)cccc1F [Compound 72, (Z)-2,6-difluoro-N-(4-((hydroxyimino)methyl)-5-(3-(trifluoromethyl)phenyl)thiazol-2-yl)benzamide]"
12,0.2 to 0.5 µM,"N#Cc1nc(NC(=O)c2c(F)cccc2F)sc1-c1cccc(C(F)(F)F)c1 [Compound 73, N-(4-Cyano-5-(3-(trifluoromethyl)phenyl)thiazol-2-yl)-2,6-difluorobenzamide]"
13,> 1 µM,"CC(O)c1nc(NC(=O)c2c(F)cccc2F)sc1-c1cccc(C(F)(F)F)c1 (stereo not shown) [Compound 74, 2,6-Difluoro-N-(4-(1-hydroxyethyl)-5-(3-(trifluoromethyl)phenyl)thiazol-2-yl)benzamide]"
14,0.2 to 0.5 µM,"C=Cc1nc(NC(=O)c2c(F)cccc2F)sc1-c1cccc(C(F)(F)F)c1 [Compound 75, 2,6-Difluoro-N-(5-(3-(trifluoromethyl)phenyl)-4-vinylthiazol-2-yl)benzamide]"
15,0.05 to 0.1 µM,"O=C(Nc1nc(-c2cnco2)c(-c2cccc(C(F)(F)F)c2)s1)c1c(F)cccc1F [Compound 76, 2,6-Difluoro-N-(4-(oxazol-5-yl)-5-(3-(trifluoromethyl)phenyl)thiazol-2-yl)benzamide]"
16,> 1 µM,"O=C(Nc1nc(C2=NCCN2)c(-c2cccc(C(F)(F)F)c2)s1)c1c(F)cccc1F [Compound 77, N-(4-(4,5-Dihydro-1H-imidazol-2-yl)-5-(3-(trifluoromethyl)phenyl)thiazol-2-yl)-2,6-difluorobenzamide]"
17,> 1 µM,"O=C(Nc1nc(-c2ncc[nH]2)c(-c2cccc(C(F)(F)F)c2)s1)c1c(F)cccc1F [Compound 78, N-(4-(1H-Imidazol-2-yl)-5-(3-(trifluoromethyl)phenyl)thiazol-2-yl)-2,6-difluorobenzamide hydrochloride]"

# Same assay, conditions: Homo sapiens, PHA 2.5 μg/mL, 20 hours, IL-2 ELISA
row,SMILES,IC50
1,"Cc1nc(NC(=O)c2c(F)cccc2F)sc1-c1cccc(C(F)(F)F)c1 [Compound 48, Sodium (2,6-difluorobenzoyl)(4-methyl-5-(3-(trifluoromethyl)phenyl)thiazol-2-yl)amide]",0.05 to 0.1 µM

# — patent US8455658B2, “Thiazole and thiadiazole compounds for inflammation and immune-related uses” (Synta Pharmaceuticals Corp., priority 2006, dated 2013)
